# “Also recorded” adds a separate entry of the source. Counter-ions that a name gives are not always drawn. Like-named read-outs stand apart in the source and are kept apart here.
# Assays:
# α2-adrenergic receptors = settings: cited from earlier work
# I1-imidazoline receptors = settings: cited from earlier work
# rats = settings: for effect of antagonist on Clonidine potentiation of Morphine analgesia / effect of antagonist on Clonidine potentiation of Oxycodone analgesia: idazoxan 2 mg/kg ip or yohimbine 2 mg/kg ip given 15 min before clonidine 1 mg/kg ip; for effect of antagonist on Clonidine potentiation of Oxycodone analgesia / effect on oxycodone analgesia in rats treated with BMS182874 / effect on Oxycodone analgesia / AUC0→360 of tail flick latency: oxycodone 4 mg/kg sc; for effect on morphine analgesia in rats treated with BMS182874 / effect on oxycodone analgesia in rats treated with BMS182874 / analgesic effect of the agent alone (tail flick latency) / AUC0→360 of tail flick latency: BMS182874 50 μg icv; for effect on morphine analgesia in rats treated with BMS182874: morphine 4 mg/kg sc; for analgesic effect of the agent alone (tail flick latency) / AUC0→360 of tail flick latency: clonidine 1 mg/kg ip; for effect on Morphine analgesia / effect on Oxycodone analgesia: clonidine 1 mg/kg ip or BMS182874 50 μg icv; for effect on Morphine analgesia: morphine 8 mg/kg sc; for AUC0→360 of tail flick latency: each agent alone: morphine 8 mg/kg sc, Mean±S.E.M., n=6
# [1] = system: patients having coronary artery bypass graft surgery; settings: cited from earlier work
# Male Swiss Webster mice = experiment: Tail-flick latency (antinociception) in mice; settings: for tail flick latency, fold above vehicle: clonidine 0.3 mg/ml
# healthy volunteers = settings: clonidine 0.2 mg p.o., alone or with naloxone; cited from earlier work
# [2] = system: patients after spinal fusion; settings: cited from earlier work
# goats = settings: epidural; cited from earlier work
# μ-opioid receptors = μ-opioid receptors (Homo sapiens, UniProt P35372); settings: relative to morphine; cited from earlier work
# ETB receptors = target: T1, ETB receptors (Homo sapiens, UniProt P24530); settings: membrane preparations; read-out: IC50, inhibition of binding of ET-1 to ETB receptors; cited from earlier work
# T1 sequence (P24530 27-442): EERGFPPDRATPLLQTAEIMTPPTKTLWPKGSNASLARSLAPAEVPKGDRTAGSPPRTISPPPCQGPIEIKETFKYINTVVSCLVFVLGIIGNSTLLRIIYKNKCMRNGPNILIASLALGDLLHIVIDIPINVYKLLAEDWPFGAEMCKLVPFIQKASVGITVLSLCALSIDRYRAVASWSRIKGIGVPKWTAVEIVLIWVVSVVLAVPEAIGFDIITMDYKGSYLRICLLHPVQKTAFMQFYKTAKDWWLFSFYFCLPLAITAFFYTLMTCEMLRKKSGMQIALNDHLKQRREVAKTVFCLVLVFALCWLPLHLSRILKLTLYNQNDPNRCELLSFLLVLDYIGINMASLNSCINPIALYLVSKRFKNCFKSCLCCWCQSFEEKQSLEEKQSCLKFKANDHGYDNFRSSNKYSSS
# [3] = cited from earlier work
# ETA receptors = target: T2, ETA receptors (Homo sapiens, UniProt P25101); settings: membrane preparations; read-out: IC50, inhibition of binding of ET-1 to ETA receptors; cited from earlier work
# T2 sequence (P25101 21-427): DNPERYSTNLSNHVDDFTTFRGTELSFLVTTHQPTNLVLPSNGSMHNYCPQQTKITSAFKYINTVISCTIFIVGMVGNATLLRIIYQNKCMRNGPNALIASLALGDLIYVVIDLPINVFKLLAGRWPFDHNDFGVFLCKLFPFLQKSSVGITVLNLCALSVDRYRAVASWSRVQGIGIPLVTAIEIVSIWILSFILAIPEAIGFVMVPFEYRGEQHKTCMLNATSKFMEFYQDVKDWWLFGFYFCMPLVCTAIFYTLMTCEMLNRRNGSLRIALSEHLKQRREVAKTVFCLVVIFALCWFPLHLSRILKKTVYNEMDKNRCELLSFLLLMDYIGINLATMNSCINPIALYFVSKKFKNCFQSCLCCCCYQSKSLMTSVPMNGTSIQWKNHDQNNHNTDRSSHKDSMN
# [4] = cited from earlier work; remark: listed apart in the source
# Sequence of μ-opioid receptors (P35372 whole entry): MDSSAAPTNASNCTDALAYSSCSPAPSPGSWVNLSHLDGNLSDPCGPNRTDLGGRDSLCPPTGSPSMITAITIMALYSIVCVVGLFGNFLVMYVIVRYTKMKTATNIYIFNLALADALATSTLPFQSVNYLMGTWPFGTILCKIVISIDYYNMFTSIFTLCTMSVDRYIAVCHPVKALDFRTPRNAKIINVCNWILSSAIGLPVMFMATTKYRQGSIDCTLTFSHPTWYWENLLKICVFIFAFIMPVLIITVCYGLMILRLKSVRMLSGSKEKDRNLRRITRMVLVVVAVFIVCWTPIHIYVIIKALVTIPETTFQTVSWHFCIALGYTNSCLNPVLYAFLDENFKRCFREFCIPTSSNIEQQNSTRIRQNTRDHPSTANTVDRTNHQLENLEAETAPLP
compound,measurement,setting,value
"c1ccc2c(c1)OCC(C1=NCCN1)O2 (stereo not shown) [Idazoxan, 2-(1,4-benzodioxan-2-yl)-2-imidazoline]",Ki,α2-adrenergic receptors,3.6 nM
same,Ki,I1-imidazoline receptors,186 nM
same,effect of antagonist on Clonidine potentiation of Morphine analgesia,rats; rats,did not affect; also recorded: No effect
same,effect of antagonist on Clonidine potentiation of Oxycodone analgesia,rats; rats,Blocked
"CN1CC[C@]23c4c5ccc(O)c4O[C@H]2[C@@H](O)C=C[C@H]3[C@H]1C5.O=S(=O)(O)O [Morphine, 7,8-didehydro-4,5α-epoxy-17-methylmorphinan-3,6α-diol sulfate]",morphine dosage in the first 24 h [median (25th-75th percentiles)],"[1]; i.v. morphine group (PCA alone, control)",37 (30.5-51) mg
same,time to extubation,[1]; i.v. morphine group,330 (300-360) min
same,morphine dosage in the first 24 h [median (25th-75th percentiles)],[1]; intrathecal morphine group (4 microg/kg plus i.v. PCA morphine),40.5 (15-61.5) mg
"Clc1cccc(Cl)c1NC1=NCCN1 [Clonidine, N-(2,6-dichlorophenyl)-4,5-dihydro-1H-imidazol-2-amine]",AUC0→240 min from tail flick latency,"Male Swiss Webster mice; Example 3, mice, morphine 4 mg/kg s.c., clonidine 2 mg/kg i.p. 30 min before morphine or vehicle, mean±SEM, N=6",68.4±12.3
same,AUC of tail flick latency compared to control mice,"Male Swiss Webster mice; Example 5 study 2, clonidine 2 mg/kg i.p. alone, sulfisoxazole 1000 mg/kg oral alone",produced an increase in AUC
same,increase in tail flick latency,"Male Swiss Webster mice; clonidine 0.3 mg/kg plus CMC, 2 hours post injury",5 fold
same,tail flick latency at late time,"Male Swiss Webster mice; clonidine 0.3 mg/kg plus CMC, by 6 hours",decreased to approximately the level of vehicle treated animals
same,"tail flick latency, fold above vehicle",Male Swiss Webster mice; at 3 hours,approximately 3 fold
same,"tail flick latency, fold above vehicle",Male Swiss Webster mice; by 5 hours,2.5 fold
same,"tail flick latency, fold above vehicle",Male Swiss Webster mice; immediately after injury,up to 4 fold
same,"tail flick latency, fold over vehicle","Male Swiss Webster mice; clonidine 1.0 mg/kg i.p., at approximately 6 hours",3 fold
same,"tail flick latency, fold over vehicle","Male Swiss Webster mice; clonidine 1.0 mg/kg i.p., up to approximately 3 hours",approximately 5 fold
same,enhancement of the antinociception produced by morphine,"Male Swiss Webster mice; clonidine 2 mg/kg i.p. + morphine 4 mg/kg s.c., AUC",42%
same,"tail flick latency, fold over vehicle","Male Swiss Webster mice; clonidine 3.0 mg/kg i.p., all time points measured",approximately 5 fold
same,Ki,α2-adrenergic receptors,3.8 nM
same,effect on body temperature,"Body temperature in mice; clonidine 0.3, 1.0, 3.0 mg/kg i.p., all doses",decreased body temperature
same,Ki,I1-imidazoline receptors,1 nM
same,effect on morphine analgesia in rats treated with BMS182874,rats; clonidine 0.1 mg/kg ip,did not produce an increase in analgesic effect
same,effect on oxycodone analgesia in rats treated with BMS182874,rats; clonidine 0.1 mg/kg ip,did not produce an increase in analgesic effect
same,effect on morphine analgesia in rats treated with BMS182874,rats; clonidine 0.3 mg/kg ip,"significant (P=0.016 and P=0.011, respectively) increase"
same,effect on oxycodone analgesia in rats treated with BMS182874,rats; clonidine 0.3 mg/kg ip,"significant (P=0.02 and P=0.031, respectively) increase"
same,effect on morphine analgesia in rats treated with BMS182874,rats; clonidine 1.0 mg/kg ip,"significant (P=0.016 and P=0.011, respectively) increase"
same,effect on oxycodone analgesia in rats treated with BMS182874,rats; clonidine 1.0 mg/kg ip,"significant (P=0.02 and P=0.031, respectively) increase"
same,analgesic effect of the agent alone (tail flick latency),rats; rats,produced significant (P=0.00086) analgesia
same,effect on Morphine analgesia,rats; rats,significantly potentiated; also recorded: Increase
same,effect on Oxycodone analgesia,rats; rats,potentiated; also recorded: Increase
same,AUC0→360 of tail flick latency,rats; rats,16.62±1.61 sec.min
same,duration of increased subjective and objective pain thresholds,healthy volunteers,at least 4 hours
same,pain score (visual analog scale) after clonidine,"[2]; clonidine 5 micrograms/kg i.v. in 1st h then 0.3 microgram/kg/h for 11 h, mean±standard error",26±3 mm
same,change in mean arterial pressure,[2]; clonidine group at T11,−26±2%
same,pain score (visual analog scale) before clonidine,"[2]; clonidine group, starting value, mean±standard error",42±5 mm
same,mean arterial pressure,[2]; clonidine group,74±2 mmHg
same,"morphine requirement, dose for each patient","[2]; clonidine group, i.m. morphine on demand",3.8 ± 1 mg
same,duration of antinociception,goats,5.5 h
"COC(=O)[C@@H]1[C@H]2C[C@H]3c4[nH]c5ccccc5c4CCN3C[C@@H]2CC[C@@H]1O [Yohimbine, 17α-hydroxy-yohimban-16α-carboxylate hydrochloride]",Ki,α2-adrenergic receptors,22 nM
same,Ki,I1-imidazoline receptors,21800 nM
same,effect of antagonist on Clonidine potentiation of Morphine analgesia,"rats; rats, hydrochloride",Blocked
same,effect of antagonist on Clonidine potentiation of Oxycodone analgesia,"rats; rats, hydrochloride",Blocked
"COc1ccc2c3c1O[C@H]1C(=O)CC[C@@]4(O)[C@@H](C2)N(C)CC[C@]314.Cl [Oxycodone, 4,5α-epoxy-14-hydroxy-3-methoxy-17-methylmorphinan-6-one hydrochloride]",AUC0→360 of tail flick latency,rats; rats,18.23±2.32 sec.min
same,"affinity to the μ-opioid receptors, times less than morphine",μ-opioid receptors,> 20 times
N=C(N)NC(=O)Cc1c(Cl)cccc1Cl [guanfacine],duration of antinociception,goats,8 h
"4-amino-N-(3,4-dimethyloxazol-5-yl)-benzenesulfonamide [Sulfisoxazole]",potentiation of antinociception produced by morphine,"Male Swiss Webster mice; sulfisoxazole 500 mg/kg oral + morphine 4 mg/kg s.c., AUC",14%
same,IC50,ETB receptors,22000 nM
same,"average steady state plasma concentration, mean","[3]; 500 mg oral four times a day, healthy volunteers",63.4 µg/mL
same,drug excreted in urine by kidney,[3]; in 24 hours,95%
same,binding to plasma proteins,[3]; in vivo,extensively bound to plasma proteins
same,maximum blood level (adverse reactions more frequent above),[3]; in vivo,≤ 200 µg/mL
same,IC50,ETA receptors,600 nM
same,solubility,[4],highly soluble
"Cc1noc(NS(=O)(=O)c2cccc3c(N(C)C)cccc23)c1C [BMS182874, 5-(dimethylamino)-N-(3,4-dimethyl-5-isoxazolyl)-1-naphthalene sulfonamide]",increase in tail flick latency,"Male Swiss Webster mice; BMS182874 10 μg/kg icv + clonidine 0.3 mg/kg i.p., 1 and 2 hours post treatment, compared to vehicle of FIG. 5A",5 fold
same,increase in tail flick latency,"Male Swiss Webster mice; BMS182874 10 μg/kg icv + clonidine 0.3 mg/kg i.p., 4 hours post treatment",approximately 3 fold
same,increase in tail flick latency,"Male Swiss Webster mice; BMS182874 10 μg/kg icv + clonidine 0.3 mg/kg i.p., by 6 hours post treatment",2 fold
same,effect on clonidine analgesia,"Male Swiss Webster mice; BMS182874 low and high dose (2.0 and 50.0 μg/kg, icv), clonidine 0.3 mg/kg i.p.",moderately potentiated
same,effect on the analgesic effect of clonidine,"Male Swiss Webster mice; BMS182874 middle dose 10 μg/kg icv, clonidine 0.3 mg/kg i.p.",potentiated
same,effect on the fall in temperature induced by clonidine,"Body temperature in mice; BMS182874 2.0, 10.0, 50.0 μg/kg icv, clonidine 0.3 mg/kg i.p.",did not affect
same,effect on analgesic activity of clonidine,"rats; rats, BMS182874 50 μg icv 15 min before clonidine 1.0 mg/kg ip",did not affect
same,analgesic effect of the agent alone (tail flick latency),rats; rats,did not produce any analgesic effect
same,effect on Morphine analgesia,rats; rats,significantly potentiated; also recorded: Increase
same,effect on Oxycodone analgesia,rats; rats,potentiated; also recorded: Increase
same,AUC0→360 of tail flick latency,rats; rats,4.47±1.49 sec.min

# From patent publication US20100022574A1, “Methods to Treat Pain Using an Alpha-2 Adrenergic Agonist and an Endothelin Antagonist” (EndogenX, Inc., priority 2008, published 2010)
